Reference: US20190223450A1, “MICROALGAE EXTRACT FOR AGRICULTURAL USE” (priority 2015, published 2019)

Assays:
[1] = system: zoospores; experiment: Inhibition of zoospores (mobility); design: species or system Plasmopara viticola
[2] = system: pathogenesis-related (PR) proteins; experiment: Induced resistance in vine: resistance-linked metabolites and pathogenesis-related (PR) proteins; format: in vivo, vine plants; details: for production of metabolites linked to resistance phenomena / response: vine plants
Method: (§1) The efficacy of the treatments using the products listed above was assessed on the basis of the induced resistance using foliar discs and potted vine plants. The rate of induced resistance was determined on the basis of the increase in the content of pathogenesis-related (PR) proteins including: peroxidase, polyphenoloxidase, Beta 1,3-glucanase, phenylalanine ammonia-lyase, stilbene synthase, PR-1 protein and caffeoyl coenzyme A-3-O-methyltransferase.

[3] = system: Plasmopara viticola; experiment: Protection of vine foliar discs and potted vine plants against Plasmopara viticola (peronospora); format: in vivo; details: vine plants affected by peronospora
Method: The field tests were performed on vine plants affected by peronospora. The potential of certain biocontrol and plant extract products for protection against Plasmopara viticola (peronospora) was also assessed, since some chemical and natural substances can reduce the plants' susceptibility. In particular, comparisons were performed on the use of commercial products or experimental products: • EXPERIMENTAL PRODUCT 1 (EP1) yeast extract • EXPERIMENTAL PRODUCT 2 (EP2) plant extract • EXPERIMENTAL PRODUCT 3 (EP3) Aureobasidium pullulans • CANG extract of Solidago canadensis • P E N extract of mycelium of Penicillium crysogenum • LIN linoleic acid • BABA—chemical elicitors of 3-dl-β-aminobutyric acid • BTH—chemical elicitors of benzothiadiazole • CP—comparator product: extract of microalgae • MBGPT1—alginate extract of Phaeodactylum tricornutum obtained according to the method described above • chrysolaminarin from microalga
as §1

Row | SMILES | inhibition of the zoospores (mobility) [1] | formation of necrotic spots and PR proteins ([2]; immediately after inoculation) | production of metabolites linked to resistance phenomena / response [2] | protection [3]
1 | CC(N)CC(=O)O (racemic) [BABA, 3-dl-β-aminobutyric acid] | unable to inhibit the zoospores | caused the formation of necrotic spots and PR proteins immediately after inoculation |  | 
2 | c1ccc2snnc2c1 [BTH, benzothiadiazole] |  |  | induced the production of a wide range of metabolites linked to resistance phenomena | 
3 | CCCCC/C=C\C/C=C\CCCCCCCC(=O)O [LIN, linoleic acid] |  |  | induced the production of a wide range of metabolites linked to resistance phenomena | insignificant protection
